Experimental data from patent US20220401408A1, “COMPOSITIONS AND METHODS FOR RESCUING RETINAL AND CHOROIDAL STRUCTURE AND FUNCTION” (AUCKLAND UNISERVICES LIMITED, priority 2019, published 2022).

How the values were obtained:
[1] = Estimated circulating concentration after oral tonabersat in peanut butter; format: in vivo, Sprague Dawley (SD) rats
Procedure: Tonabersat treatment of light damaged rats—LD rats were randomly assigned to low, middle or high dose of tonabersat (n=7 per group). The mixture of tonabersat in peanut butter was prepared fresh for each experiment. Three oral tonabersat doses were tested (n=7 per group) with follow up to 2 weeks post-injury, and the highest dose group then split with three animals taken for histological analysis, and four animals followed to 3 months post-injury. There was a ten-animal vehicle only control group. The group of rats that were kept for 3 months were maintained in separate cages for drug or vehicle-treated animals, but were kept under the same light conditions. Tonabersat was fed to animals in peanut butter at 0.26 mg/kg (on average 0.08 mg delivered, estimated circulating concentration 10 μM), 0.8 mg/kg (average of 0.24 mg delivered; 30 μM circulating) or 2.4 mg/kg (on average 0.72 mg delivered; 90 μM circulating) following consideration of previous unsuccessful human trial dosing levels. Silberstein S D. Tonabersat, a novel gap-junction modulator for the prevention of migraine. Cephalalgia. 2009; 29 Suppl 2:28-35; Dahlof C G, Hauge A W, Olesen J. Efficacy and safety of tonabersat, a gap-junction modulator, in the acute treatment of migraine: a double-blind, parallel-group, randomized study. Cephalalgia. 2009; 29 Suppl 2:7-16; Goadsby P J, Ferrari M D, Csanyi A, Olesen J, Mills J G, Tonabersat TONSG. Randomized, double-blind, placebo-controlled, proof-of-concept study of the cortical spreading depression inhibiting agent tonabersat in migraine prophylaxis. Cephalalgia. 2009; 29:742-50. […] The treatment groups were known to the investigator at the time of treatment, but groups were then randomized prior to statistical comparison which meant that analysis was conducted without the knowledge of which were treated or control animals. […] Two weeks later animals were again assessed with ERG and OCT and tissue collection proceeded immediately after, except for four rats in the high dose group that were under experimentation for 3 more months.

[2] = Body weight of hyperglycemic rats; format: in vivo, SD rats (spontaneously hyperglycemic strain); details: 0.28 mg/kg once daily 14 days; week 8
Source text: Hyperglycemic Rat Diabetic Retinopathy Model—A spontaneously hyperglycemic strain of SD rats, which developed clinical signs of diabetic retinopathy within 4 weeks of birth were identified and isolated within the Vernon Jansen Animal Research Unit, Faculty of Medical and Health Sciences at the University of Auckland. The identification of these rats presenting with hyperglycemia and microaneurysms provided an opportunity to treat a complex, chronic disease model and assess the treatment effect based upon objective, measurable endpoints, despite lacking precise information on the etiology of the disease. Inbreeding was carried out over three generations and eyes were screened for abnormalities between 4-8 weeks of age. […]
Ten rats per group were the selected (10 normal SD and 10 hyperglycemic) grown to 5 weeks of age and assessed using OCT and ERG. […] All animals were assessed again using ERG and OCT at 8 weeks of age before euthanizing animals and removing the eyes for immunohistochemical analysis. […] In summary, normal SD and hyperglycemic rats were analyzed with OCT and ERG at 5 weeks of age; the hyperglycemic rats were then split into two groups and fed the vehicle or tonabersat for 14 days during weeks 6 and 7 of age. At week 8, animals were again assessed with ERG and OCT and tissues collected for immunohistochemical analysis. […]

What does the source list for `CC(=O)c1ccc2c(c1)[C@H](NC(=O)c1ccc(F)c(Cl)c1)[C@H](O)C(C)(C)O2` [tonabersat, N-[(3S,4S)-6-acetyl-3-hydroxy-2,2-dimethyl-3,4-dihydrochromen-4-yl]-3-chloro-4-fluorobenzamide]?
estimated circulating concentration ([1]; 0.26 mg/kg oral in peanut butter (on average 0.08 mg delivered)): 10 µM; estimated circulating concentration ([1]; 0.8 mg/kg oral in peanut butter (average 0.24 mg delivered)): 30 µM; estimated circulating concentration ([1]; 2.4 mg/kg oral in peanut butter (on average 0.72 mg delivered)): 90 µM; body weight, treated vs untreated hyperglycemic rats [2]: no difference
